{"source": "patent US20180298344A1", "about": "“Realistic Humanized Model of Disease Matrix Environment for Evaluation of Therapeutic Reversal or Cell Fate” (Yale University, priority 2017, published 2018)", "key": {"[1]": {"system": "cultured lung fibroblasts", "details": "cultured lung fibroblasts in vitro; cited from earlier work"}, "[2]": {"system": "idiopathic pulmonary fibrosis patients", "details": "IPF patients; cited from earlier work"}, "[3]": {"system": "human microvascular pericytes (PC)", "assay": "Short term (7 day) myofibroblast differentiation of PC on low, medium, high stiffness hydrogels with TGF-β1 or bleomycin activation", "format": "cell-based", "method": "Human microvascular PC were isolated from a readily available and nearly inexhaustible source, human placental tissue, by microvascular segment explant outgrowth (Sava et al., Microcirculation, 2015, 22:54-67; Ayres-Sander et al., PLoS One, 2013, 8:e60025; Lauridsen et al., FASEB, 2014, 28:1166-1180; Maier et al., Microcirculation, 2010, 17:367-380). Human placental tissue was segmented, digested with collagenase, and the resulting cells were cultured in M199 (Gibco, Grand Island, NY, USA) medium supplemented with 20% FBS (Hyclone Laboratories, Logan, Utah, USA), and 1% penicillin-streptomycin (Gibco). Isolated pericytes were screened by flow cytometry against NG2 (H-300, Santa Cruz Biotechnology), CD90 (K-15, Santa Cruz), CD146 (P1H12, Biolegend, San Diego, Calif., USA), PDGFR-β (18A2, Santa Cruz), α-SMA (1A4, Santa Cruz), SMMHC (N-16, Santa Cruz), CD31 (C20, Santa Cruz), CD34 (581, Sigma) and CD45 (MEM-28, Sigma). As negative control, PC were incubated with isotype matched IgG. Samples were run on a Stratedigm S1000EXi Flow Cytometer (Stratedigm, San Jose, Calif. USA) and analyzed with FlowJo software (Tree Star, Ashland, Oreg., USA).\nPolyacrylamide hydrogels were prepared as previously described (Tse and Engler, Current protocols in cell biology, editorial board, Juan S. Bonifacino et al, 2010, Chapter 10, Unit 10-16). Briefly, amino-silanated coverslips were prepared by treatment with 0.1M NaOH, followed by 3-aminopropyltriethoxysilane (Sigma), and crosslinked with glutaraldehyde. Chloro-silanated coverslips were treated with dichlorodimethylsilane (Sigma). Polyacrylamide solutions of varying stiffness were prepared by altering the concentrations of acrylamide (Bio-Rad, Hercules, Calif., USA) and bis-acrylamide (Bio-Rad). Ammonium persulfate (Sigma) and tetramethylethylenediamine (Bio-Rad) were used as cross-linkers. The solution was placed between the chloro-silanated and amino-silanated coverslips and cross-linked under ambient lighting for 30 minutes, after which the amino-silanated slide, containing the hydrogel, was hydrated in PBS. The ECM components were chemically conjugated to the polyacrylamide hydrogel using the naturally occurring amine residues on the proteins. Sulfa-SANPAH (Thermo Fisher, Grand Island, N.Y., USA) was added in 50 mM 4-(2-hydroxyethyl)-1-piperazineethanesulfonic acid buffer (Sigma) and the hydrogels were placed under UV light (365 nm, 10 mW/cm^2) for 15 minutes, and incubated overnight with either 0.5 mg/mL solubilized healthy or IPF human lung ECM, or isolated ECM proteins (0.1 mg/mL human plasma fibronectin (Millipore, Billerica, Mass., USA) and 0.1 mg/mL collagen I (Sigma). Validation of protein conjugation was performed by tagging ECM with NHS-Fluorescein (5/6-carboxyfluorescein succinimidyl ester), dialyzing overnight, and rinsed extensively (Syed et al., J Vis, Exp, 2015, 97).\nFor short term (7 day) differentiation studies, PC (passage 3-7) were seeded on healthy or IPF lung tissue slices, polyacrylamide hydrogels, or 25 mm glass coverslips (VWR) at 100×10^3 cells per sample and activated with control media (non-activated), or 1 ng/mL TGF-β1 (PeproTech, Rocky Hill, N.J., USA) for 7 days (18, 19). For bleomycin activation, the cells were activated with 1 μg/mL bleomycin sulfate (Cayman Chemical, Ann Arbor, Mich.) for 1 day and the media was replaced with non-activated media for the remaining 6 days (Sava et al., Microcirculation, 2015, 22:54-67; Sterling et al., J Bio Chem, 1983, 258:14438-14444). TGF-β1 and bleomycin concentrations were based on reports consistent with activation of fibroblasts (Sava et al., Microcirculation, 2015, 22:54-67; Maroni and Davis, Bio Reprod, 2012, 87:127). Treatment with CCG-1423 (Sigma) was performed at day 0 for the full 7 days, and labeled as early treatment, or at day 7 and performed for 7 days, and labeled as late treatment. […]"}, "[4]": {"details": "7 days, low, medium, high stiffness hydrogels with fibronectin and collagen I, TGF-β1 1 ng/mL 7 days or bleomycin 1 μg/mL 1 day, flow cytometry"}}}
{"compound": "COC(=O)c1ccc2c(c1)NC(=O)/C2=C(\\Nc1ccc(N(C)C(=O)CN2CCN(C)CC2)cc1)c1ccccc1", "note": "[nintedanib]", "values": [{"measurement": "TGF-β1-induced myofibroblast differentiation and matrix deposition", "setting": "[1]", "result": "oppose"}, {"measurement": "decline in forced vital capacity", "setting": "[2]", "result": "reducing the decline in forced vital capacity"}]}
{"compound": "TGF-β1: transforming growth factor (TGF)-β1, fibrotic activator, used at 1 ng/mL", "values": [{"measurement": "vimentin expression compared to non-activated PC on substrates of the same stiffness", "setting": "[3]; [4]", "result": "did not induce a significant increase"}, {"measurement": "α-SMA expression compared to non-activated PC on substrates of the same stiffness", "setting": "[3]; [4]", "result": "did not induce a significant increase"}, {"measurement": "proportion of α-SMA-expressing PC", "setting": "[3]; soft or stiff hydrogels, up to 7 days, presence or absence of TGF-β1", "result": "failed to affect"}]}
